Laboratory results from BindingDB's records for doi:10.1111/j.1747-0285.2012.01416.x (University of California San Diego, 2012).

Molecular target: Cruzipain (Trypanosoma cruzi, UniProt P25779)
Assay: Enzymatic Assay
From the text: Enzymatic inhibition using cruzain.

Chain of Cruzipain (P25779 whole entry): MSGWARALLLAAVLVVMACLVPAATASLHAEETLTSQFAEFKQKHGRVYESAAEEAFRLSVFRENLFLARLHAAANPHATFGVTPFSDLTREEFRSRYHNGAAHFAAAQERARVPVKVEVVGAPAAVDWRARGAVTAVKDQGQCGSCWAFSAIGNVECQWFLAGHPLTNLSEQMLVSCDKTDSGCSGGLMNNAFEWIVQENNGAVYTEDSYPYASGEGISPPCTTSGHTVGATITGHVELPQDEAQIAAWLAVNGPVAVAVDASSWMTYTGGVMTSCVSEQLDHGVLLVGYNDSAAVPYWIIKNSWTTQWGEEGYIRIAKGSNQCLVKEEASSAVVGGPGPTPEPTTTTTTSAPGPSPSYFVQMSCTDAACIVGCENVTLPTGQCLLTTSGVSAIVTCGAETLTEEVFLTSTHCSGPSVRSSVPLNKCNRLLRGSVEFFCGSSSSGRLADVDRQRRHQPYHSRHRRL

Compound | IC50
Cn1ccc(=Nc2ccc(NC(=O)c3ccc(N=c4ccn(C)c5ccc([N+](=O)[O-])cc45)cc3)cc2)cc1 [4-[(1-methyl-6-nitro-quinolin-4-ylidene)amino]-N-[4-[(1-methylpyridin-4-ylidene)amino]phenyl]benzamide] | 63 µM
CO[C@H]1[C@@H](OC(=O)c2ccc(C)[nH]2)[C@@H](O)C(Oc2ccc3c(O)c(NC(=O)c4ccc(O)c(CC=C(C)C)c4)c(=O)oc3c2Cl)OC1(C)C (some centres not stated) [NSC227186] | 16 µM
